Laboratory results: article PMC6017477, “In Vitro ADME Properties of Two Novel Antimicrobial Peptoid-Based Compounds as Potential Agents against Canine Pyoderma” (Molecules : A Journal of Synthetic Chemistry and Natural …, 2018)
Non-standard residues stand in square brackets, D forms with d. Residues, ends and D or L forms follow the SMILES beside them. N(1-naphthylmethyl)Gly = O=C(O)CNCc1cccc2ccccc12; N(4-MeBn)Gly = Cc1ccc(CNCC(=O)O)cc1; NBuGly = CCCCNCC(=O)O; Nlys = NCCCCNCC(=O)O

Legend:
[1] = in vitro; conditions: Beagle, dog
Procedure: Plasma stability was determined by incubation of a known concentration of the peptoid/hybrid of interest with dog plasma up to 60 min at 37 °C and analyzing the concentration of the peptide in the supernatant by LC-MS/MS after protein precipitation. Results are presented as average of triplicates from a single donor.
Dog plasma was collected from a single Beagle dog at the research facilities of Zoetis Animal Health (Kalamazoo, MI, USA) and frozen immediately until use. […] Test compounds were added to plasma diluted 1:1 with PBS buffer pH 7.4 and preheated for 5 min at 37 °C. Samples were removed at 0, 5, 10, 20, 30, and 60 min. The reaction was stopped by protein precipitation by adding a 9:1 (v/v) ACN:MeOH mixture followed by centrifugation at 10,000 rpm for 5 min, and the remaining amount of intact test compounds in the supernatant was quantified via API Sciex 4000Q LC-MS/MS (Framingham, MA, USA) (coupled with an HPLC column to filter off the plasma proteins—see Supplementary Materials, Section S6) upon completion of the assay. Experiments were performed in quadruplicate.

[2] = test system: human red blood cells; format: cell-based; conditions: 37 °C, 1 h
Procedure: EC10 and EC50 values represent concentrations that result in 10 and 50% hemolysis, respectively. […] Briefly, two-fold serial dilutions (1 to 256 μg/mL) were incubated in PBS with a suspension of freshly withdrawn human red blood cells in PBS in 96-well v-shaped microtiter plates at 37 °C for 1 h covered with Microseal foil to avoid evaporation, and transferred to 96-well flat bottomed microtiter plates. The release of hemoglobin was detected by measuring the absorbance at 414 nm by a UV spectrophotometer (VERSAmax™ Tunable Microplate Reader, Molecular Devices, San José, CA, USA). PBS and melittin were used as negative and positive controls, respectively. All human blood samples were obtained after informed consent of the voluntary donors upon understanding of the research purposes, within local hospitals and according to local guidelines.

[3] = test system: pronase; assay: in vitro; conditions: pronase from Streptomyces griseus, pH 8
[4] = Plasma protein binding, rapid equilibrium dialysis; format: in vitro ADME, dog; conditions: Beagle, dog; for recovery at 4 h, 30.8 µM: pH 7.4, % Average Recovery; for fraction unbound at 4 h, 30.8 µM: plasma
Procedure: (§1) The plasma protein binding properties of candidate drugs can influence their efficacy, safety, and distribution. The fraction of peptoid bound to proteins of plasma collected from dogs was determined using rapid equilibrium dialysis.
(§2) Plate inserts comprised two side-by-side chambers separated by a dialysis membrane (8K MWCO). The chambers contained […] plasma or 350 µL dialysis buffer (PBS buffer pH 7.4), respectively. Dogplasma lot was identical to the one used in the plasma stability assay. […] Plates were sealed and incubated at 37 °C for 4 h on a shaker. Each test was run in quadruplicate in dog plasma. Upon completion of the assay, the plasma protein binding was determined by protein precipitation with ACN of both plasma and PBS, and drug levels were quantified via LC-MS/MS as described above. The percentage of bound compounds was determined from peak areas using Equations (3) and (4):% free = (concentration buffer chamber/concentration plasma chamber) × 100%(3) % bound = 100% − % free(4)

[5] = test system: dog plasma proteins; assay: Plasma protein binding, rapid equilibrium dialysis; format: in vitro ADME
Procedure: as §1, §2

[6] = in vitro; conditions: liver microsomes
Text: Liver microsomal assay is used to determine hepatic intrinsic clearance of a drug and identification and profile of metabolites across species. Evaluation of microsomal stability of compounds in different species is common procedure in the drug discovery process to evaluate different metabolites in case of instability.
Dog and human microsomes were obtained from XenoTech LLC (Kansas City, KS, USA) and reconstituted in buffer containing D-(L)-isocitrate trisodium salt and 10 U/mL isocitrate dehydrogenase type IV glycerol solution (procine). […] The reaction was initiated by adding NADPH and substrate to reconstituted microsomes. A final concentration of 1 µM substrate was incubated with 0.5 mg/mL microsomes in the presence of 1 mM NADP^+ in 100 mM PBS with 1 mM MgCl2. Samples were collected at 0, 5, 10, 20, 30, and 60 min. The reaction was conducted at 37 °C before termination by addition of ACN, and analysis was conducted by LC-MS/MS (similar to the method described above). Controls with no drug and with no microsome regeneration system (buffer only) were included. All samples were prepared in triplicate. The rate of degradation by metabolism was measured on the basis of the difference of substrate concentration remaining at every time point. Metabolic half-lives were calculated as mentioned above.

[7] = Day 0 versus Day 1, UV-UPLC
Procedure: 5-60% ACN in 2 minutes, 0.1% Formic Acid
(Waters Acquity UV-UPLC, C18 column, 2.1x54 mm, T=60°C, equilibration time= 0.1 min)
Table S4 Final gradient elution UV-UPLC method used for the LC-MS/MS experiments. %A and %B indicate the
percentage of the mobile phases mixed at the given time. […]

[8] = test system: Staphylococcus pseudintermedius; format: cell-based; conditions: irrespective of the strain being MSSP or MRSP; Mueller-Hinton broth, 35 °C, 16–20 h
Procedure: Assays were performed by microbroth dilution of test compounds in Mueller-Hinton broth (MHB) in microtiter plates (Corning 96-well clear polypropylene round bottom plates, non-treated) according to the Clinical and Laboratory Standard Institute guidelines. The compounds were tested in concentrations ranging from 1 to 64 μg/mL (1, 2, 4, 8, 16, 32, 64 μg/mL). Briefly, bacteria were streaked on blood agar plates and incubated overnight at 37 °C. From these plates, colonies were suspended in saline solution and adjusted by nephelometer to obtain turbidity equivalent to a 0.5 McFarland standard. The suspension was diluted 1:100 in sterile 0.9% (w/v) saline, and 50 μL of this suspension was transferred to each well of the microtiter plate containing 50 μL of peptide solution in water, resulting in a concentration of 5 × 10^5 CFU/well. The microtiter plate was sealed and incubated at 35 °C for 16–20 h. Results were read by visual inspection.

[9] = UV-UPLC detection limit 1 µg/L
Procedure: The experiment was repeated twice.
The experiment was conducted in duplicate.

[10] = molecular target: T1, trypsin (Bos taurus, UniProt P00760); assay: Stability to proteases: trypsin
T1 sequence (P00760 24-246): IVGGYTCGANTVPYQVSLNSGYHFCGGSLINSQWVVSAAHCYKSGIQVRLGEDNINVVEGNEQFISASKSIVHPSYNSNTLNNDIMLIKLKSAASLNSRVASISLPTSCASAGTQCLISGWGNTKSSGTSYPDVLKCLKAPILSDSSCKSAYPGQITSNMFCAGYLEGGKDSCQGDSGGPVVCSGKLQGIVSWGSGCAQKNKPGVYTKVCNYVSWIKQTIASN
Procedure: Solutions, concentrations, and reaction temperatures were selected according to manufacturer’s recommendations for total peptide digestion. A stock solution of 1 mM trypsin was prepared in 1 mM Tris HCl buffer solution containing 20 mM Ca^2+. […] […] Chymotrypsin was solubilized at 10 mg/mL in 1 mM HCl solution containing 2 mM CaCl2. […] Chymotrypsin reaction was conducted in 100 mM Tris HCl containing 10 mM CaCl2, pH 7.8 at 30 °C. […] At time 0, 3, and 6 h, 50 µL aliquots were removed for RP-HPLC analysis (see supplementary Materials, Section S3).

[11] = in vitro; format: cell-based; conditions: dog
Text: B1 and D2 were designed on the basis that the majority of antimicrobial peptides are cationic and hydrophobic. We envisaged that short linear peptide-peptoid hybrids consisting of cationic lysines and hydrophobic peptoid residues would result in derivatives with potent antibacterial activity and low cytotoxicity. […] Repeated experiments on different days with different human blood samples confirmed the results.

[12] = molecular target: α-chymotrypsin (Bos taurus, UniProt P00766)
Procedure: Solutions, concentrations, and reaction temperatures were selected according to manufacturer’s recommendations for total peptide digestion. A stock solution of 1 mM trypsin was prepared in 1 mM Tris HCl buffer solution containing 20 mM Ca^2+. […] Reaction was conducted at 37 °C for 6 h. Chymotrypsin was solubilized at 10 mg/mL in 1 mM HCl solution containing 2 mM CaCl2. […] Chymotrypsin reaction was conducted in 100 mM Tris HCl containing 10 mM CaCl2, pH 7.8 at 30 °C. […] At time 0, 3, and 6 h, 50 µL aliquots were removed for RP-HPLC analysis (see supplementary Materials, Section S3).

[13] = In vitro drug release from formulations, Franz cell with cellulose membrane; format: physicochemical
Procedure: Release was evaluated as function of the amount of peptide diffused through a cellulose membrane in the receptor of a Franz cell and detected via RP-HPLC from 0 to 8 h.
An oil-in-water cream and an ointment were prepared as described by Danish Health and Medicines Authority. For the oil-in-water cream, ingredients of the oil phase (Table 3) were melted on a water bath at 70 °C and mixed with the water phase, which was previously brought to boil and cooled down to 65–70 °C. The mixture was stirred until cooled. The ointment formulation was prepared by mixing melted Vaseline (80%) with paraffin oil (20%) on a water bath and allowed to cool under stirring. The cold method was used for preparation of the 20% (w/w) poloxamer gel, where the poloxamer powder was dissolved in purified water at 4 °C and subsequently left overnight at 2–8 °C to stabilize. All formulations were stored at 4 °C for maximum seven days before use. […] For the hydrogel, the compounds dissolved in water were mixed with the cold poloxamer solution before gelling at room temperature.
Approximately 200 µL of each formulation was filled into the donor chambers of the Franz cells via a 1 mL syringe ensuring contact with the cellulose membrane separating the donor compartment from the receptor compartment. The donor compartment was maintained at room temperature (25 ± 1 °C) and the membrane diffusion area was 1.57 cm^2. […] The receptor medium (3 mL PBS, pH 7.4) was stirred using magnetic stirring and thermo-regulated to 36 °C by a water jacket. Samples (200 μL) were collected from the receptor compartment through the sampling port over 8 h, and the withdrawn volume was replaced with an equal volume of buffer at every time point. The samples were analyzed by a Waters 600E RP-HPLC equipped with Empower 3 software (Waters Corporation, Milford, MA, USA): 30 min run time with 20 min linear gradient from 0.1% (v/v) TFA in water to 30% (v/v) ACN:H2O with 0.1% (v/v) TFA (90:10). […] Experiments were performed in duplicate.

[14] = test system: pronase; conditions: 37 °C, RP-HPLC peak areas
[15] = test system: dog plasma proteins; conditions: stated in the method for the control; no reference given; cited from earlier work
[16] = pH 7.4, % Unbound (free fraction)
[17] = Beagle, dog, 4 h, 30.8 µM, pH 7.4
[18] = dog plasma, 4 h incubation, 37 °C

## CCCCN(CC(=O)N[C@@H](CCCCN)C(=O)N(CC(=O)N(CC(=O)N(CC(N)=O)Cc1cccc2ccccc12)Cc1ccc(C)cc1)Cc1cccc2ccccc12)C(=O)[C@H](CCCCN)NC(=O)[C@@H](N)CCCCN [Compound B1] (H-KK[NBuGly]K[N(1-naphthylmethyl)Gly][N(4-MeBn)Gly][N(1-naphthylmethyl)Gly]-NH2)
[1]; dog plasma diluted 1:1 with PBS, pH 7.4, Half-life in plasma (dog), dog plasma, 37 °C, incubation up to 60 min, LC-MS/MS
  half-life: ~0.5 h
[1]; dog plasma diluted 1:1 with PBS, pH 7.4, stability to plasma proteases (half-life), in hours
  half-life: 0.5 h
[2]
  EC50, concentration resulting in 50% hemolysis of erythrocytes: 219 µg/mL
[3]
  metabolised at 24 h, 0.2 µM: 38%
[4]
  recovery at 4 h, 30.8 µM: > 70%
[4]; [16]
  fraction unbound at 4 h, 30.8 µM: 0.0016
[5]; [17]
  % Average Recovery: 75.6%
[6]; dog
  half-life at 1 µM: > 2 h
[6]; human
  half-life at 1 µM: > 2 h
[6]
  remaining at 1 h, 1 µM: 100%
[7]
  stability in 50% transcutol in acetate buffer pH 5: stable
[8]
  Minimum inhibitory concentration (MIC): 2 to 4 µg/mL
[9]
  skin penetration from 50% transcutol formulation after 24 h: No penetration
[10]; isolated enzyme trypsin
  metabolised at 24 h, 1 mg/mL: 6%
[11]
  hemolysis at 150 µM: 45%
[12]
  degradation after α-chymotrypsin exposure: no degradation

## CCCCN(CC(N)=O)C(=O)CN(CCCCN)C(=O)CN(Cc1cccc2ccccc12)C(=O)CN(CCCCN)C(=O)CN(Cc1ccc(C)cc1)C(=O)CN(Cc1cccc2ccccc12)C(=O)CN(CCCCN)C(=O)CNCCCCN [Compound D2] (H-[Nlys][Nlys][N(1-naphthylmethyl)Gly][N(4-MeBn)Gly][Nlys][N(1-naphthylmethyl)Gly][Nlys][NBuGly]-NH2)
[13]; 20% poloxamer gel, 8 h
  release from 20% poloxamer gel after eight hours: no detectable release
[13]; oil-in-water cream
  release kinetics from oil-in-water cream: zero-order kinetics
[13]; ointment, 8 h
  release from ointment after eight hours: no detectable release
[1]; plasma, pH 7.4, Half-life in plasma (dog), dog plasma, 37 °C, incubation up to 60 min, LC-MS/MS
  half-life: > 2 h
[3]
  metabolised at 24 h, 0.2 µM: 0.2%
[4]
  recovery at 4 h, 30.8 µM: > 70%
[4]; [16]
  fraction unbound at 4 h, 30.8 µM: 0.0143
[4]; pH 7.4, Bound to plasma proteins
  fraction unbound at 4 h, 30.8 µM: < 0.02
[5]; [17]
  % Average Recovery: 70.8%
[5]; Beagle, dog, plasma, 4 h, 30.8 µM, pH 7.4
  Bound to plasma proteins: 98.6%
[6]; dog
  half-life: > 2 h
[6]; human
  half-life: > 2 h
[6]
  remaining at 1 h, 1 µM: 77%
[14]
  degradation after 24 h incubation with pronase: shows stability
[8]
  Minimum inhibitory concentration (MIC): 2 to 4 µg/mL
[10]
  degradation after 24 h of incubation with trypsin: no degradation
[11]
  hemolysis at 150 µM: 22%
[12]
  degradation after α-chymotrypsin exposure: no degradation

## CS(=O)(=O)CC(=O)N1CC2(C1)OCc1cc(C3=NO[C@@](c4cc(Cl)c(F)c(Cl)c4)(C(F)(F)F)C3)ccc12 [Control, sarolaner, reference compound]
[5]; [18]
  % Unbound (free fraction): 0.27%
  Bound to plasma proteins: 99.7%
[5]; dog plasma, 4 h incubation, n = 4
  % Average Recovery: 67.1%
[15]
  protein bound (known value of the control compound): > 99%
